Drawing on ChEMBL document CHEMBL1155206, “Synthesis and in vitro evaluation of 2,4-diamino-1,3,5-triazine derivatives as neuronal voltage-gated sodium channel blockers” (Bioorg Med Chem Lett, 2009), this text covers IC50 for 35 molecules.

Assay [1] is described as follows: Displacement of [3H]BTX-B from neurotoxin site 2 of voltage gated sodium channel in rat cerebral cortex synaptoneurosomes after 30 mins by scintillation counting. Format: tissue-based.
A further assay concerns the target T1, Dihydrofolate reductase (Bos taurus, UniProt P00376).
T1 sequence (P00376 whole entry): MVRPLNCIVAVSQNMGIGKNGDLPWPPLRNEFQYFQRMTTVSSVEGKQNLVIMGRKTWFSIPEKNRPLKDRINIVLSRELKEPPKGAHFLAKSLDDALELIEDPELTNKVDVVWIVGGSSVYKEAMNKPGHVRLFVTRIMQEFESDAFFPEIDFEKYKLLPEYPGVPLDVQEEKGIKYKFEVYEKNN
Put plainly: Inhibition of bovine liver DHFR assessed as NADPH consumption during conversion of dihydrofolic acid to tetrahydrofolic acid.

One may read the IC50 as the point on the concentration scale where inhibition reaches its midpoint. With `COc1ccc(N2C(N)=NC(N)=NC23CCCCC3)cc1`, the IC50 in assay [1] is 7.8 µM; at Dihydrofolate reductase it was more than 100 µM.
In the case of `NC1=NC2(CCCCC2)N(c2ccc(Cl)cc2)C(N)=N1`, the figures for the IC50 (in assay [1]; at Dihydrofolate reductase) were 4.4 µM and more than 100 µM, respectively.
Take `Cc1cccc(NC2=NC(N)=NC(C)(C)N2)c1`: the results for the IC50 (in assay [1]; on Dihydrofolate reductase) were 186 µM and more than 100 µM, respectively.
With `Cc1ccccc1N1C(N)=NC(N)=NC12CCCCC2`, the IC50 in assay [1] is 9.1 µM; at Dihydrofolate reductase it was more than 100 µM.
Consider `Nc1nc(CCl)nc(Nc2ccc(Cl)c(Cl)c2)n1`, for which the values for the IC50 (in assay [1]; at Dihydrofolate reductase) were 168 µM and more than 100 µM, respectively.
Consider `Nc1nc(CCl)nc(Nc2cccc([N+](=O)[O-])c2)n1`, for which the IC50 in assay [1] was 190 µM; at Dihydrofolate reductase, more than 100 µM.
On to `CC1(C)N=C(N)N=C(Nc2cccc(Cl)c2)N1`, for which the IC50 is 16.5 µM in assay [1] and more than 100 µM on Dihydrofolate reductase.
As for `NC1=NC2(CCCCC2)N(c2ccccc2)C(N)=N1`, the IC50 was 14.7 µM in assay [1] and more than 100 µM at Dihydrofolate reductase.
In the same order, the values of `CC1(C)N=C(N)N=C(Nc2ccccc2)N1` are 259 µM and more than 100 µM.
Consider `Cc1ccc(CN2C(N)=NC(N)=NC2(C)C)cc1`, for which the IC50 is 32.2 µM in assay [1] and 24.6 µM at Dihydrofolate reductase.
In the case of `Cc1ccc(NC2=NC(N)=NC(C)(C)N2)cc1`, the IC50 was 71.5 µM in assay [1] and more than 100 µM at Dihydrofolate reductase.
With `COc1ccccc1N1C(N)=NC(N)=NC12CCCCC2`, the IC50 in assay [1] was 12.3 µM; at Dihydrofolate reductase it was more than 100 µM.
Take `Nc1nc(CCl)nc(Nc2cccc(Br)c2)n1`: the IC50 was 172 µM in assay [1] and more than 100 µM at Dihydrofolate reductase.
With `Cc1cccc(N2C(N)=NC(N)=NC23CCCCC3)c1`, the IC50 in assay [1] is 4.7 µM; at Dihydrofolate reductase, more than 100 µM.
The corresponding values for `Cc1ccc(N2C(N)=NC(N)=NC23CCCCC3)cc1` are 4.2 µM and more than 100 µM.
Take `CC1(C)N=C(N)N=C(Nc2ccccc2Br)N1`: the IC50 was 57.5 µM in assay [1] and more than 100 µM at Dihydrofolate reductase.
On to `CC1(C)N=C(N)N=C(N)N1Cc1ccc(Cl)cc1`, for which the IC50 came out at 35.3 µM in assay [1] and 29.9 µM on Dihydrofolate reductase.
In the case of `Cc1nc(N)nc(Nc2ccc(Cl)c(Cl)c2)n1`, the figures for the IC50 (in assay [1]; at Dihydrofolate reductase) were 274 µM and more than 100 µM, respectively.
The corresponding values for `CC1(C)N=C(N)NC(Nc2ccc(Br)cc2)=N1` are 18.4 µM and more than 100 µM.
In the same order, the values of `COc1ccc(NC2=NC(N)=NC(C)(C)N2)cc1` are 207 µM and more than 100 µM.
For `CC1(C)N=C(N)N=C(Nc2ccc(Cl)cc2)N1`, the IC50 in assay [1] is 24.7 µM; at Dihydrofolate reductase it was more than 100 µM.
In the case of `Cc1nc(N)nc(Nc2cccc(Br)c2)n1`, the IC50 in assay [1] is 198 µM; on Dihydrofolate reductase, more than 100 µM.
For the molecule `NC1=NC2(CCCCC2)N(c2ccccc2Cl)C(N)=N1`, the IC50 in assay [1] was 13 µM; at Dihydrofolate reductase, more than 100 µM.
Regarding `COc1cccc(NC2=NC(N)=NC(C)(C)N2)c1`, the figures for the IC50 (in assay [1]; on Dihydrofolate reductase) were 76.2 µM and more than 100 µM, respectively.
The corresponding values for `CC1(C)N=C(N)N=C(N)N1Cc1ccccc1` are 53.2 µM and 19.5 µM.
For the molecule `CC1(C)N=C(N)N=C(Nc2ccccc2Cl)N1`, the IC50 in assay [1] was 85.5 µM; on Dihydrofolate reductase, more than 100 µM.
Take `NC1=NC2(CCCCC2)N(c2cccc(Cl)c2)C(N)=N1`: the IC50 is 4 µM in assay [1] and more than 100 µM on Dihydrofolate reductase.
In the same order, the values of `COc1cccc(N2C(N)=NC(N)=NC23CCCCC3)c1` are 5.1 µM and more than 100 µM.
The corresponding values for `Cc1nc(N)nc(Nc2cccc(Cl)c2)n1` are 246 µM and more than 100 µM.
Regarding `O=C1NC(=O)C(c2ccccc2)(c2ccccc2)N1` [PHENYTOIN], the IC50 in assay [1] is 126 µM; on Dihydrofolate reductase, more than 100 µM.
For the molecule `Cc1ccccc1NC1=NC(N)=NC(C)(C)N1`, the IC50 in assay [1] was 582 µM; at Dihydrofolate reductase, more than 100 µM.
For `CC1(C)N=C(N)N=C(Nc2cccc(Br)c2)N1`, the IC50 was 12.6 µM in assay [1] and more than 100 µM on Dihydrofolate reductase.
`CC1(C)N=C(N)N=C(N)N1Cc1ccc(Cl)c(Cl)c1`: the results for the IC50 (in assay [1]; on Dihydrofolate reductase) were 19 µM and 12.8 µM, respectively.
Take `COc1ccccc1NC1=NC(N)=NC(C)(C)N1`: the IC50 in assay [1] was 343 µM; at Dihydrofolate reductase, more than 100 µM.
`COc1ccc(CN2C(N)=NC(N)=NC2(C)C)cc1`: the IC50 is 59.8 µM in assay [1] and 58.8 µM at Dihydrofolate reductase.
